Laboratory results from article PMC6300691, “Enhancement of Heat Stability and Kinetic Parameters of the Maize Endosperm ADP-Glucose Pyrophosphorylase by Mutagenesis of Amino Acids in the Small Subunit With High B Factors” (Frontiers in Plant Science, 2018).
Changes are numbered by the printed parent chain.

Tests used:
Assay type in all cases: biochemical
K403R = K403R (Zea mays, UniProt P55241+Q947C0, K403R); assay: Activation constant from initial rates with varied 3-PGA (0-1 mM) at 2 mM ATP and 2 mM G-1-P, pH 7.4, 15 mM MgCl2, fitted to V = Vmin + Vmax*X/(Ka + X).; set-up: BT2 variant with wild type SH2, E. coli, purified
Description: All reactions were developed as above.

MP + SH2-E = system: T1, MP + SH2-E; assay: Initial-rate assay without 3-PGA, ATP and G-1-P both varied (0.01-10 mM and 0.1-25 mM), global fit to a sequential mechanism.; settings: read-out: ATP Km (absence of 3-PGA)
T1 construct: chimeric small subunit MP (maize 198 / potato 277 amino acids) with SH2-E
Description: (§1) Activity in the absence of the activator 3PGA was examined. While 3PGA is a noted activator for plant AGPase, the mechanism of activation differs for the various AGPases. […] Thus, the term “activation fold” in the literature is merely an activity reported at single fixed substrate concentrations.
(§2) The small subunit mutant, MP, contains the first 198 amino acids of the small subunit of the maize endosperm enzyme and the last 277 amino acids from the potato tuber enzyme resulting in thirty-three amino acid sites that differ from the maize endosperm enzyme ([Cross et al., 2004]).

SH2-E/BT2-BF = target: T2, SH2-E/BT2-BF (Zea mays, UniProt P55241+Q947C0, E123G/N131R/T142F/A160T/Q261S/R331K/A396S/K402R/V416I/C424V/S444A); assay: as above; settings: read-out: ATP Km (absence of 3-PGA)
T2 construct: SH2-E co-expressed with BT2-BF, E. coli, purified
T2 sequence (Q947C0 1-475 E123G/R331K/K402R): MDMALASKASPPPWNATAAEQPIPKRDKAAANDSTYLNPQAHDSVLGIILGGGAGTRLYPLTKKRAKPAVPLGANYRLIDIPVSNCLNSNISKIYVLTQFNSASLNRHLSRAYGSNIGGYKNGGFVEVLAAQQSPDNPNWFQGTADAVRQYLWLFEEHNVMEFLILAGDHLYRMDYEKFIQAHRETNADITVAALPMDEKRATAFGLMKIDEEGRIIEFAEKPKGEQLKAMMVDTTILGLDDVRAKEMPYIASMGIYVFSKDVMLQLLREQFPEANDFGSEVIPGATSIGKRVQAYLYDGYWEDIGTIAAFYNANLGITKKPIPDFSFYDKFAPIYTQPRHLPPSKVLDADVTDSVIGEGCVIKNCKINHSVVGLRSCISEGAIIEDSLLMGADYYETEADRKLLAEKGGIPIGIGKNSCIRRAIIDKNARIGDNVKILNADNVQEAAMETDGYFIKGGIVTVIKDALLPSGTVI
T2 sequence (P55241 46-516 N131R/T142F/A160T/Q261S/A396S/V416I/C424V/S444A): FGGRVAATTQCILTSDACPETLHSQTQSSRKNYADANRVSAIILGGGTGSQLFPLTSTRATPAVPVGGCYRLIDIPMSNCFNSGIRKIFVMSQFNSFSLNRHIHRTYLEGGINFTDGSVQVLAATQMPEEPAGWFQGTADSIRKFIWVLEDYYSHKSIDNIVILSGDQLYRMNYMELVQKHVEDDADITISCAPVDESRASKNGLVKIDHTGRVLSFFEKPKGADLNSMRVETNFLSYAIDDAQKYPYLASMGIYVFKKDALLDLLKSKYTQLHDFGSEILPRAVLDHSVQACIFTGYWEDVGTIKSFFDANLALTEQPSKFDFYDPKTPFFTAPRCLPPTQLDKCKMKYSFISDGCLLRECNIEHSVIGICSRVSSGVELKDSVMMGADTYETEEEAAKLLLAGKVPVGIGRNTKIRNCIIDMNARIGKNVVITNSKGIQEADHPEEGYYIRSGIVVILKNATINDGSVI
Description: as §1, §2

SH2-ISM/BT2-BF = target: T3, SH2-ISM/BT2-BF (Zea mays, UniProt P55241+Q947C0, Q96G/E123G/D161G/R331K/K402R/A443R); assay: as above; settings: read-out: ATP Km (absence of 3-PGA)
T3 construct: SH2-ISM co-expressed with BT2-BF, E. coli, purified
T3 sequence (Q947C0 1-475 E123G/R331K/K402R): T2 sequence (Q947C0 1-475 E123G/R331K/K402R)
T3 sequence (P55241 46-516 Q96G/D161G/A443R): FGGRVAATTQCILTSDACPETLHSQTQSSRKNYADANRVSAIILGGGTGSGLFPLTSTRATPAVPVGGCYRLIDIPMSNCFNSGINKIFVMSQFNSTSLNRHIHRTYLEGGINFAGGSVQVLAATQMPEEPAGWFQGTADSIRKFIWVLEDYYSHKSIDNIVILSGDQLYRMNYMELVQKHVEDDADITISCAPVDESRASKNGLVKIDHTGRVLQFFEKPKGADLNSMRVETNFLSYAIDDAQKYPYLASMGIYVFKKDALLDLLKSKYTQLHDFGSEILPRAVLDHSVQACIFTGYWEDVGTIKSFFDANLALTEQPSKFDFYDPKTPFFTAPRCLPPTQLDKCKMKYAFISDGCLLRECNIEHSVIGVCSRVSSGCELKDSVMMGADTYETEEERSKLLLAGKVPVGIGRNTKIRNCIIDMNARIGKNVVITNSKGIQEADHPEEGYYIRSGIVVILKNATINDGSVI
Description: as §1, §2

[1] = target: T4, E123G, R331K, K402R (BT2-BF) (Zea mays, UniProt P55241+Q947C0, E123G/R331K/K402R); assay: as above; settings: read-out: ATP Km (absence of 3-PGA)
T4 construct: BT2-BF with wild type SH2 (SH2-WT/BT2-BF), E. coli, purified
T4 sequence (Q947C0 1-475 E123G/R331K/K402R): T2 sequence (Q947C0 1-475 E123G/R331K/K402R)
T4 sequence (P55241 46-516): T3 sequence (P55241 46-516 Q96G/D161G/A443R) with G51Q, G116D, R398A
Description: as §1, §2

Chain of K403R (Q947C0 1-475 K403R): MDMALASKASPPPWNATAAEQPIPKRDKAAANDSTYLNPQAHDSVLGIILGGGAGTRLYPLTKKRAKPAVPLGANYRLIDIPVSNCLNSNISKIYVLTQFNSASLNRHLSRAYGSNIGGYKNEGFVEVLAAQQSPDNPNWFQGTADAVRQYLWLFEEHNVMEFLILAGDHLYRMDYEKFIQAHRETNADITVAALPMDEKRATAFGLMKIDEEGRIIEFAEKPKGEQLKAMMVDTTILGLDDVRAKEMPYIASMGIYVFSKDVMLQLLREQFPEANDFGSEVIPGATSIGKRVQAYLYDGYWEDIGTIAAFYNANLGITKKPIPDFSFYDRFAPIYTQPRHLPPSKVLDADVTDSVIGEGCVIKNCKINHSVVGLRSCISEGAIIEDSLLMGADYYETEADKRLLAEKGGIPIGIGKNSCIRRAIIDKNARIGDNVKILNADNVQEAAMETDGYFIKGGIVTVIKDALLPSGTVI
Chain of K403R (P55241 46-516): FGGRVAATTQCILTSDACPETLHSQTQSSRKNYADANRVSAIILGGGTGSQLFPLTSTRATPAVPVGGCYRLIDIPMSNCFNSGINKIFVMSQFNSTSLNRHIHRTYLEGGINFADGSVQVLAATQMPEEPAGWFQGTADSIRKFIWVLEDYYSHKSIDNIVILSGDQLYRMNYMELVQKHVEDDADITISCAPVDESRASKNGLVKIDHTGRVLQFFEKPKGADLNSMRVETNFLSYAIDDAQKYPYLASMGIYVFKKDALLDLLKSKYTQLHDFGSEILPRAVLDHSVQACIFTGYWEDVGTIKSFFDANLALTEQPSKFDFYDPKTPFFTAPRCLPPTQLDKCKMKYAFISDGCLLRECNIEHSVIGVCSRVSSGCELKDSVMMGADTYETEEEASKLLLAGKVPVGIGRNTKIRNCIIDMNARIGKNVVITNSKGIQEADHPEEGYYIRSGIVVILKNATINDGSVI

Row | SMILES | 3-PGA Ka (activation constant) (K403R) | Km (MP + SH2-E) [µM] | Km (SH2-E/BT2-BF) [µM] | Km (SH2-ISM/BT2-BF) [µM] | Km [1] [µM]
1 | O=C(O)[C@H](O)COP(=O)(O)O [3-PGA, 3-phosphoglycerate (3-phosphoglyceric acid)] | 0.22 ± 0.057 | – | – | – | –
2 | Nc1ncnc2c1ncn2[C@@H]1O[C@H](COP(=O)(O)OP(=O)(O)OP(=O)(O)O)[C@@H](O)[C@H]1O [ATP, adenosine 5'-triphosphate] | – | 320 ± 21 | 2410 ± 350 | 510 ± 100 | 300 ± 250
